Data: patent US20250367151A1, “ANTI-VWF THERAPEUTIC FOR PREVENTING ARTERIAL THROMBI” (GEORGIA TECH RESEARCH CORPORATION, priority 2022, published 2025)
“Also recorded” adds a separate entry of the source. Where two headings read alike, the source gives them in different places.

How the values were obtained:
[1] = test system: tail bleeding in mice; conditions: mice treated with ASA, previously seen (Decouture et al. 2019); cited from earlier work
[2] = test system: platelet aggregation in human whole blood; experiment: Brightfield platelet intensity (lag time, rapid platelet accumulation rate) in the microfluidic model; format: cell-based
Method: (§1) For each chip, the mass flow rate of each outlet channel and brightfield images of two stenotic regions were acquired. Mass flow rates for each channel were measured using four mass balances (Ohaus Scout) connected to the device outlets. Occlusion time was defined as the difference between the time blood enters the stenosis region of the microfluidic device and the time when the mass balances register their peak mass. A brightfield, upright microscope (Leica DM6000B) was used in conjunction with a CCD camera (Pixelfly, PCO) to image the stenotic regions of the middle two channels as the occlusive thrombus formed. Images were taken once per second with a 40× magnification. These images were later thresholded into black and white images to identify platelet rich thrombi from the background blood (ImageJ). Average platelet intensity is defined as the average B/W value of the stenosis region. A value of 0 represents a clean channel with no platelets and increasing values indicate platelet accumulation.
(§2) Occlusion times for each concentration were tested using an unpaired Student's t-test. For survival curves, each possible combinations of pairs of concentrations were tested using a log-rank test. Visual measurement of platelet intensities for each concentration were compared using a Mann-Whitney U test. Statistical significance was determined by p<0.05.
(§3) N-acetyl cysteine was added to blood to create final concentrations of 3 mM, 5 mM and 10 mM. For each human subject, a fresh solution of concentrated NAC (Sigma Aldrich) was created in PBS and neutralized to a pH of 7 with NaOH. The concentrated NAC solution was then diluted so that the same volume of NAC solutions was added to each sample. Negative control (OmM) samples were similarly diluted with 0.5 mL of PBS in 15 mL blood. In three individuals, additional experiments were performed at concentrations of 7.5 mM, 20 mM and 40 mM. For all experiments, NAC was allowed to incubate in the blood at room temperature on a shaker for 30 minutes prior to testing.
Brightfield measurements of platelet aggregation were used to establish whether the increase in occlusion time observed in 3 mM and 5 mM cases is primarily due to effects on initial platelet attachment (lag time) or the platelet accumulation rate (RPA). Lag time is defined as the time required for the average platelet intensity measurements to increase to 1% of their maximal value. Average lag times for 0 mM, 3 mM, 5 mM NAC experiments are 49 s, 65 s and 107 s, respectively. The small increases in lag time for 3 mM and 5 mM treatments cannot account for the 125-325 s increases in occlusion time seen in the 3 mM and 5 mM conditions. This is instead explained by a decrease in the rapid platelet accumulation rate, defined as the slope of the platelet intensity graph (FIG. 2B). […] The slope of the platelet intensity curve decreases as NAC concentration increases, with 10 mM NAC having a negligible slope. When the RPA rate for each individual is normalized to the individual's control RPA rate, the platelet aggregation rates for 3 mM, 5 mM and 10 mM are 0.66, 0.38 and −0.12, respectively (FIG. 2D, p<0.01 compared to control for all conditions). The small negative aggregation rate for 10 mM is an artifact caused by mixing of blood and PBS at the interface between the priming solution and the sample.

[3] = test system: occlusive thrombi in common carotid artery of C57 mice; experiment: Murine modified-Folts model of arterial thrombosis (carotid stenosis and crush injury); format: in vivo, mouse; conditions: 200 mg/kg NAC 6 hrs prior and immediately prior to crush injury
[4] = Zhou et al. 2015; cited from earlier work
[5] = Elimination of NAC from mouse plasma (literature); format: in vivo; conditions: calculated from half-life of 34 minutes
[6] = test system: occlusive thrombi in common carotid artery of C57 mice; experiment: Murine modified-Folts model of arterial thrombosis (carotid stenosis and crush injury); format: in vivo, mouse
Method: Formation of occlusive thrombi was measured using a murine Modified-Folts model (Kim D A, et al. Platelet α-granules are required for occlusive high-shear-rate thrombosis. Blood Adv. 2020;4:3258-3267). C57 mice were used under conditions approved by the university animal use and care committees. Following isolation of the common carotid artery, blood flow through the vessel was measured with a flow probe (Transonic Systems). A 6.0 silk suture was then tied around the vessel and tightened until the measured flow rate was approximately 50% of the initial value. This creates a stenosis region with high shear-rate at the apex. The artery is then crushed with forceps to damage the endothelial cells and expose collagen in the extracellular matrix.
In single injection experiments, 13 mice were treated with either 200 mg/kg NAC, 400 mg/kg NAC, or PBS. 100 μL of freshly prepared, neutralized NAC solution or vehicle was I.V. injected approximately 45 minutes prior to the crush injury.
For repeat injection experiments, mice were given either PBS, 200 mg/kg, or 400 mg/kg NAC through a 100 μL I.V. injection 6 hr prior to surgery. Mice were then given a second injection of PBS, 200 mg/kg, or 400 mg/kg NAC approximately 45 minutes prior to the crush injury. Additionally, 4 mice were given a dose of 400 mg/kg NAC through an 100 μL injection 6 hr prior to the surgery, followed by a second injection of PBS immediately prior to the crush injury.
Blood flow measurements were taken with a Transonic flow probe and acquired with Powerlab software (ADInstruments) (Id.). Time to initial occlusion is defined as the time between the crush injury and the first point where flow reaches approximately 0. After occlusion, if flow remains around 0 then the occlusion is characterized as stable. If instead the thrombus detaches and flow increases, the clot is labelled an unstable occlusion.
Statistical significance in time to initial occlusion was determined using unpaired student t-test (p <0.05). Differences in thrombus stability are determined using a Pearson's Chi-squared test (p <0.05).

[7] = test system: tail bleeding in mice; experiment: Tail bleeding model; format: in vivo, mouse; conditions: 400 mg/kg NAC; PBS 2.35 minutes, p=0.14
Method: Bleeding times were assessed using the tail bleeding model described previously (Liu Y, Standardizing a simpler, more sensitive and accurate tail bleeding assay in mice. World J Exp Med. 2012;2:30). Briefly, mice were anesthetized and the distal 3 mm segment of the tail was transected and placed in a vial of warm saline. The injuries were monitored visually to determine the time it took for bleeding to cease.

[8] = Olsson et al. 1988; cited from earlier work
[9] = test system: human whole blood; experiment: Occlusion time in a stenotic microfluidic model of arterial thrombosis; format: cell-based; conditions: for Average occlusion time: 30 min incubation, shear ~7,500 s-1, untreated 124 s; for Occlusion time, weak NAC responders: 0 mM 112 s; for Occlusion time, strong NAC responders: 0 mM 136 s
Source text: Microfluidic tests were run using a microfluidic system previously described (Griffin M T, et al. Inhibition of high shear arterial thrombosis by charged nanoparticles. Biomicrofluidics 2018;12). The chip contains a single inlet split into four outlet channels 475 μm wide and 250 μm tall. Within each outlet channel is a stenotic region 800 μm long where the height decreases to 70 μm. Flow is controlled using a hydraulic pressure head created by a raised reservoir connected to the inlet which generates an initial shear rate of ˜7,500 s-1 in the stenotic region. Channels are coated overnight with 100 μg/mL collagen Type I (Chrono-Log Corp) in 0.9% saline. Blood is filtered with a 37 μm nylon mesh immediately prior to testing to prevent debris from entering the chip.
as §1, §2
Blood was collected from 10 healthy adult volunteers. Subjects were recruited in accordance with Georgia Institute of Technology's Institutional Review Board Guidelines (IRB #17315). Subjects with known bleeding disorders, a history of anti-platelet medications within 10 days of donation, anemia or transmittable blood disease were excluded from the study. Standard phlebotomy techniques were used to obtain blood. Briefly, 60 mL of blood was drawn slowly through a 21 G needle into a 60 ml syringe containing 0.21 mL of a 1000 USP/mL solution of heparin sodium (Fisher Scientific) in PBS to achieve a heparin concentration of […] in the collected blood. Complete Blood Counts (CBCs) were also performed on all donor samples. All tests were run within 4 hours of the blood draw.
as §3
To test the effect of N-acetylcysteine on reducing arterial thrombosis in human blood, whole blood was perfused collected from 10 healthy human subjects through a stenotic microfluidic channel coated with type I collagen. A constant pressure head of 16 mmHg was formed using an elevated upstream reservoir to create shear rates of ˜7,500 s-1 in the stenotic region and ˜800 s-1 in the rest of the channel. […]

[10] = test system: human whole blood; experiment: VWF recovery experiment in 10 mM NAC treated blood, microfluidic system; format: cell-based
Method: VWF recovery experiments were performed using 3 individual's 10 mM NAC samples prepped as detailed above. 19 IU/mL of VWF (Humate) was added to these samples and they were immediately perfused through the microfluidic system. Occlusion times and platelet intensities were measured as above.
To test if the NAC prevented arterial thrombosis by modifying VWF as hypothesized, new VWF was added to blood samples treated with 10 mM NAC. […] Although OTs of the recovery samples were higher than the control, the average RPA rates for the control and recovery conditions were similar. By shifting the control curve right, simulating a 76 s increase in lag time, the two curves show a high degree of concordance (FIG. 9).

[11] = two doses of 400 mg/kg NAC 6 hrs apart

For CC(=O)Oc1ccccc1C(=O)O [ASA], the Average bleeding time [1] is given as 5.72 min.

In the case of CC(=O)N[C@@H](CS)C(=O)O [NAC, N-acetylcysteine], the “Platelet aggregation (RPA) rate normalized to the individual's control RPA rate” value ([2]; 3 mM NAC) is reported as 0.66, the “Reduction of the maximum growth rate of thrombi” value ([2]; 3 mM NAC) is reported as 30% and the “Average lag time (time to 1% of maximal platelet intensity)” value ([2]; 3 mM NAC, 0 mM 49 s) is reported as 65 s. The “Platelet aggregation (RPA) rate normalized to the individual's control RPA rate” value ([2]; 5 mM NAC) was 0.38, the “Reduction of the maximum growth rate of thrombi” value ([2]; 5 mM NAC) was 60% and the “Average lag time (time to 1% of maximal platelet intensity)” value ([2]; 5 mM NAC, 0 mM 49 s) was 107 s. For the same compound, the Visible platelet aggregation ([2]; 10 mM NAC, 1000 s of the experiment) was “no visible aggregation of platelets”, the “Lag time (time to 1% of maximal platelet intensity)” value ([2]; 10 mM NAC, 0 mM 49 s) was 910 s and the “Platelet aggregation (RPA) rate normalized to the individual's control RPA rate” value ([2]; 10 mM NAC, small negative value said to be an artifact) was −0.12. For the same compound, the Visible platelet aggregation ([2]; 20 mM NAC) was “no visible platelet aggregation”, the Visible platelet aggregation ([2]; 40 mM NAC) was “no visible platelet aggregation” and the Visible platelet aggregation ([2]; NAC concentrations over 10 mM) was “no visible platelet aggregation”. The “Mice that formed no thrombi and remained patent during the entire experiment” value [3] was “Three of the 4”, the “Estimated elimination half-life in mouse plasma” value [4] was 34 min and the “Plasma concentration at 6 hrs, of the initial concentration” value [5] was less than 0.05%. For the same compound, the Clot stability ([6]; 200 mg/kg NAC single injection) was “recanalized completely; also recorded: more likely to be unstable and recanalize”, the “Flow after recanalization, of the initial flow” value ([6]; 200 mg/kg NAC single injection) was roughly 100% and the Clot stability ([6]; 400 mg/kg NAC 6 hrs prior to surgery, PBS immediately prior to crush injury) was “formed unstable thrombi”. The Occlusion ([6]; 400 mg/kg NAC I.V. single injection, N=3, 45 minutes of the experiment) was “no occlusion was observed; also recorded: completely prevented occlusion”, the Observations following administration ([6]; NAC I.V., single injection experiments) was “lower basal blood flow and initial labored breathing” and the Clot stability [6, 11] was “majority forming unstable thrombi”. For the same compound, the Time to clotting [6, 11] was no more than 10 min, the “Tissue at crush injury site” value [6, 11] was “more severe tissue damage and hemorrhage” and the Average bleeding time [7] was 2.76 min. For the same compound, the Oral bioavailability [8] was 4-9%, the Average occlusion time ([9]; 3 mM NAC) was 255 s and the “Occlusion time, weak NAC responders” value ([9]; 3 mM NAC) was 182 s. For the same compound, the “Occlusion time, strong NAC responders” value ([9]; 3 mM NAC) was 328 s, the “Increase in occlusion time” value ([9]; 3 mM and 5 mM conditions vs control) was 125 to 325 s and the Average occlusion time ([9]; 5 mM NAC) was 458 s. The “Occlusion time, weak NAC responders” value ([9]; 5 mM NAC) was 220 s, the “Occlusion time, strong NAC responders” value ([9]; 5 mM NAC) was 695 s and the “Samples not occluding within the time limit of the experiment” value ([9]; 7.5 mM NAC, 3 individuals, 1000 s window) was roughly 64%. For the same compound, the Occlusion outcome ([9]; 7.5 mM NAC, 1000 s window) was “results were mixed”, the Occlusion outcome ([9]; 20 mM NAC) was “did not occlude” and the Occlusion outcome ([9]; 40 mM NAC) was “did not occlude”. The “Inflection point of 4-parameter logistic fit of occlusion time vs NAC dose” value ([9]; r^2 = 0.782) was 5.6545 mM, the “Logistic growth rate of 4-parameter logistic fit of occlusion time” value ([9]; r^2 = 0.782) was 0.7145 and the “Lower asymptote of 4-parameter logistic fit of occlusion time” value ([9]; r^2 = 0.782) was 118.5 s. The “Upper asymptote of 4-parameter logistic fit of occlusion time” value ([9]; r^2 = 0.782) was 1028.4 s.

With “VWF: VWF (Humate) added at 19 IU/mL to 10 mM NAC treated blood” the “Increase in lag time of recovery condition vs control (shift of control curve)” value ([10]; 10 mM NAC + 19 IU vWF) was 76 s and the “Occlusive thrombus formation after VWF addition” value ([10]; 19 IU/mL VWF added to blood treated with 10 mM NAC) was “recover the ability to form rapid occlusive thrombi; also recorded: forms occlusive thrombi”.
